Reference: patent US9636299B2, “Method for treating diabetic retinopathy” (XAVIER UNIVERSITY OF LOUISIANA, priority 2012, dated 2017)
Residues, ends and D or L forms follow the SMILES beside them.

What was measured:
occludin [1] = assay: Occludin expression in high glucose-treated hRMECs (Western blot); format: cell-based, human
Description: Cell Culture. Primary cultures of human retina microvascular endothelial cells (hRMECs) were purchased from the Applied Cell Biology Research Institute and grown on attachment factor-coated plates in cell systems complete (CSC) medium (Cell Systems, Kirkland, Wash.) supplemented with 20% fetal bovine serum, culture boost (animal derived growth factors) and bac-off (antibiotics). The primary hRMECs were used in their passages 4 to 6. The 18-a.a. apoE mimetic peptide apoEdp (SEQ ID NO:3, Ac-LRKLRKRLLLRKLRKRLL-amide), derived from the human apolipoprotein E receptor-binding region (see SED ID NO:1) between residues 141 and 149, was synthesized (Genemed, Arlington, Tex.) with a purity of greater than 95%. The apoEdp peptide was dissolved in phosphate-buffered saline (“PBS”) at a concentration appropriate for further experimental use. […]
Western Blotting. […] The total protein concentration was determined using a BCA protein assay kit (Pierce, Rockford, Ill.). […] To ensure the equal loading of protein in each lane, each membrane was stripped and re-probed with an antibody against β-actin, and the chemiluminescence was detected as described previously. After scanning the blots with a flatbed scanner, band intensities were analyzed using ImageJ (NIH) and the relative intensity values were normalized to control values. […]

occludin [2] = assay: Streptozotocin-induced diabetic mice, retinal occludin protein by Western blot; format: in vivo, mouse; conditions: 14 days
Method: Western Blotting. The hRMECs were harvested in M-PER Mammalian Protein Extraction Reagent (Thermo Fisher Scientific, Inc., Rockford, Ill.) containing protease inhibitor cocktail. The total protein concentration was determined using a BCA protein assay kit (Pierce, Rockford, Ill.). Equal amounts of protein were separated by electrophoresis on 5-20% SDS-polyacrylamide gels and transferred electrophoretically onto nitrocellulose membranes (Amersham, Little Chalfont, UK). […] To ensure the equal loading of protein in each lane, each membrane was stripped and re-probed with an antibody against β-actin, and the chemiluminescence was detected as described previously. After scanning the blots with a flatbed scanner, band intensities were analyzed using ImageJ (NIH) and the relative intensity values were normalized to control values. […]
To investigate the effects on the retinal tight junction protein occludin following topical eye drop (1% apoEdp) or systemic i/p injection (40 mg/kg) of apoEdp, retinas from enucleated mouse eyes were processed to harvest total RNA, and then one-step real-time RT-PCR was performed using mice occludin-specific mRNA expression. […] To correlate the occludin-specific mRNA data at a protein level, total proteins extracted from retinas of different experimental groups (FIG. 10) were analyzed using Western-blot to detect occludin-specific protein expression.

CC(=O)N[C@@H](CC(C)C)C(=O)N[C@@H](CCCNC(=N)N)C(=O)N[C@@H](CCCCN)C(=O)N[C@@H](CC(C)C)C(=O)N[C@@H](CCCNC(=N)N)C(=O)N[C@@H](CCCCN)C(=O)N[C@@H](CCCNC(=N)N)C(=O)N[C@@H](CC(C)C)C(=O)N[C@@H](CC(C)C)C(=O)N[C@@H](CC(C)C)C(=O)N[C@@H](CCCNC(=N)N)C(=O)N[C@@H](CCCCN)C(=O)N[C@@H](CC(C)C)C(=O)N[C@@H](CCCNC(=N)N)C(=O)N[C@@H](CCCCN)C(=O)N[C@@H](CCCNC(=N)N)C(=O)N[C@@H](CC(C)C)C(=O)N[C@@H](CC(C)C)C(N)=O [apoEdp, Ac-LRKLRKRLLLRKLRKRLL-amide] (Ac-LRKLRKRLLLRKLRKRLL-NH2)
Occludin expression versus 30 mM glucose alone (occludin [1]; hRMECs co-incubated with 100 μM apoEdp and 30 mM glucose): greater levels of occludin | High glucose-induced loss of tight junction protein occludin (occludin [1]; hRMECs, 30 mM glucose 72 hours, 50 or 100 μM apoEdp): reduced | Loss of occludin protein in retina (occludin [2]; 1% apoEdp eye drop 4 times a day): significantly attenuated the loss | Loss of occludin protein in retina (occludin [2]; i/p injection 40 mg/kg daily): significantly attenuated the loss
